These results are taken from patent US20230158157A1, “POTENT AND SELECTIVE DEGRADERS OF ALK” (DANA-FARBER CANCER INSTITUTE, INC., priority 2020, published 2023).

Like-named read-outs stand apart in the source and are kept apart here.

Usually IC50 stands for the concentration that inhibits the measured activity by half. A word on the Dmax: it is the greatest extent of degradation seen. In general, DC50 refers to the concentration at which degradation of the target reaches its halfway point.

The subject of one experiment is H3122 cells. Briefly: CTG. Format: cell-based.
The target of the next experiment is T1, EML4-ALK (Homo sapiens, UniProt Q9UM73).
T1 construct: endogenous in cells; host or cells: H3122 (NSCLC), single-cell clone after CRISPR knock-in of HiBit; the other entry of the earlier key: EML4 (Q9HC35, Echinoderm microtubule-associated protein-like 4)
T1 sequence (Q9UM73 with tags, fused parts or gaps): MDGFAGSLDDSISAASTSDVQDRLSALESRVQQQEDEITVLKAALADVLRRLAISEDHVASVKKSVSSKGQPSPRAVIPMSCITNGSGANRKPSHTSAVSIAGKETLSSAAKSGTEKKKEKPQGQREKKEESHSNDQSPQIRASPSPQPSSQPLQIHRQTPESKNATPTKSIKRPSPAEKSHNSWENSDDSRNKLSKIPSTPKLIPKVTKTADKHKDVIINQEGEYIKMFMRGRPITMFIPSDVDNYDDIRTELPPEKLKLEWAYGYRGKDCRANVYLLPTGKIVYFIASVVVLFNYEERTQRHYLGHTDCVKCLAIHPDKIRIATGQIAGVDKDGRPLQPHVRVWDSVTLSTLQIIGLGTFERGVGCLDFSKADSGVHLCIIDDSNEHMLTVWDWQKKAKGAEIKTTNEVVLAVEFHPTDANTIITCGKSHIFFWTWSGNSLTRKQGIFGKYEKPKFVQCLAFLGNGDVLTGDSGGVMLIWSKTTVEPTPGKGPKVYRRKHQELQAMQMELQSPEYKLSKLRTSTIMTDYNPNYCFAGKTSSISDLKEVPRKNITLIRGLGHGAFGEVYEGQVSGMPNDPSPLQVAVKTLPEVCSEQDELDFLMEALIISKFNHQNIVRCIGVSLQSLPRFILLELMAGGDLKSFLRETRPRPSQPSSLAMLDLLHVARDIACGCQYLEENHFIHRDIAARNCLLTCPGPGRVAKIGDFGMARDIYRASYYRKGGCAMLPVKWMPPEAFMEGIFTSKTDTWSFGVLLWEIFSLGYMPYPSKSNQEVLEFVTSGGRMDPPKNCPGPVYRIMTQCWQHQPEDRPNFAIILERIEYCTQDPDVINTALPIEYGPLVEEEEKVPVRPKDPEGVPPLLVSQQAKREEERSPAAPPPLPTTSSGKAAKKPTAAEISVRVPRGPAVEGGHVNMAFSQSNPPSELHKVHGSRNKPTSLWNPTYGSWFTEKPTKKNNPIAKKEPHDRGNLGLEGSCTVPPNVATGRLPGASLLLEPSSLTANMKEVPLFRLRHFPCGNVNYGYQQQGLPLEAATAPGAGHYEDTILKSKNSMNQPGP
Briefly: EML4-ALK HiBit degradation assay in CRISPR-tagged H3122 cells (Nano-Glo HiBit Lytic Detection). Format: cell-based. On the procedure:
NSCLC cell line H3122 was subjected to CRISPR to express EML4-ALK with HiBit-tag on its c-terminal. Single-cell clone was selected and expanded for the following assays that monitor endogenous EML4-ALK level in high throughput manner. Cells were seeded in 384-well white Tissue-culture plates at 3000 cells/well for 8 hours. […] HiBit signal was assessed using Nano-Glo® HiBit Lytic Detection System (Promega™). Degrader-treated was normalized by DMSO-treated controls and DC50 and Dmax were generated by GraphPad Prism® 8.0.
NSCLC cell line H3122 was subjected to CRISPR to express EML4-ALK with HiBit-tag on its c-terminus. A single-cell clone was selected and expanded for the following assays that monitor endogenous EML4-ALK level in high throughput manner. Cells were seeded in 384-well white Tissue-culture plates at 3000 cells/well for 8 hours. […] HiBit signal was assessed using Nano-Glo® HiBit Lytic Detection System (Promega™). Degrader-treated cells were normalized by DMSO-treated controls and DC50 and Dmax were generated by GraphPad Prism® 8.0.
NSCLC cell line H3122 was subjected to CRISPR to express EML4-ALK with HiBit-tag on its C-terminus. A single-cell clone was selected and expanded for the following assays that monitor endogenous EML4-ALK level in high throughput manner. Cells were seeded in 384-well white Tissue-culture plates at 3000 cells/well for 8 hours. […] HiBit signal was assessed using Nano-Glo® HiBit Lytic Detection System (Promega™). Degrader-treated cells were normalized by DMSO-treated controls and DC50 and Dmax were generated by GraphPad Prism® 8.0.
(In general: The HiBiT peptide binds its large partner to form an active luciferase.)

The mark [1] stands for this setting: Homo sapiens, NCI-H3122, Table 1, read-out: CTG IC50.
Where [2] appears, read: NCI-H3122, Table 1, first Dmax column, H3122 EML4-ALK-HiBit, 16 hours, read-out: Degradation Dmax.
The mark [3] stands for this setting: NCI-H3122, Table 1, second Dmax column, H3122 EML4-ALK-HiBit, 16 hours, read-out: Degradation Dmax.
Setting [4] is: NCI-H3122, Table 1, average Dmax, read-out: Degradation Avg. Dmax.
Setting [5] is: Table 1, first DC50 column, H3122 EML4-ALK-HiBit, 16 hours, read-out: Degradation DC50.
[6] abbreviates: Table 1, second DC50 column, H3122 EML4-ALK-HiBit, 16 hours, read-out: Degradation DC50.
Where [7] appears, read: Table 1, average DC50, read-out: Degradation Avg. DC50.
[8] abbreviates: Homo sapiens, NCI-H3122, Table 2, read-out: CTG IC50.
Where [9] appears, read: NCI-H3122, Table 2, first Dmax column, H3122 EML4-ALK-HiBit, 16 hours, read-out: Degradation Dmax.
Where [10] appears, read: Table 2, first DC50 column, H3122 EML4-ALK-HiBit, 16 hours, read-out: Degradation DC50.

`CN[C@@H](C)C(=O)N[C@H](C(=O)N1Cc2cc(OCCCCCNCCc3cc(OC)c(Nc4ncc(Cl)c(Nc5ccccc5S(=O)(=O)C(C)C)n4)cc3C)ccc2C[C@H]1C(=O)N[C@H]1CCCc2ccccc21)C(C)(C)C` [Compound 39]: the IC50 was 414 nM in the experiment with H3122 cells (Homo sapiens, NCI-H3122, Table 1, unheaded column beside IC50 (nM), read-out: CTG IC50) and 1480 nM in the experiment on H3122 cells (setting [1]). Further, the Dmax at EML4-ALK (setting [2]) was found to be 79.1%; at EML4-ALK (setting [3]), 99.3%; on EML4-ALK (setting [4]), 89.2%. Besides, the DC50 on EML4-ALK (setting [5]) turned out to be 402 nM; on EML4-ALK (setting [6]), 184 nM; at EML4-ALK (setting [7]), 293 nM.
In the case of `COc1cc(CCNCCCC(=O)N[C@H](C(=O)N2C[C@H](O)C[C@H]2C(=O)N[C@@H](C)c2ccc(-c3scnc3C)cc2)C(C)(C)C)c(C)cc1Nc1ncc(Cl)c(Nc2ccccc2S(=O)(=O)C(C)C)n1` [Compound 43], in the experiment on H3122 cells (setting [1]), the IC50 was 289 nM. Moreover, the Dmax on EML4-ALK (setting [2]) and at EML4-ALK (setting [4]) was 38.1% each time. In addition, the DC50 on EML4-ALK (setting [5]) and on EML4-ALK (setting [7]) was 1230 nM each time.
As for `COc1cc(CCNCCCCCC(=O)N[C@H](C(=O)N2C[C@H](O)C[C@H]2C(=O)N[C@@H](C)c2ccc(-c3scnc3C)cc2)C(C)(C)C)c(C)cc1Nc1ncc(Cl)c(Nc2ccccc2S(=O)(=O)C(C)C)n1` [Compound 44], the 50% inhibitory concentration (IC50) in the experiment with H3122 cells (setting [1]) was found to be 252 nM. The Dmax at EML4-ALK (setting [2]) and at EML4-ALK (setting [4]) was 53% each time. Further, the DC50 on EML4-ALK (setting [5]) and on EML4-ALK (setting [7]) was 1250 nM in each case.
As to `COc1cc(CCNCCCCCCCC(=O)N[C@H](C(=O)N2C[C@H](O)C[C@H]2C(=O)N[C@@H](C)c2ccc(-c3scnc3C)cc2)C(C)(C)C)c(C)cc1Nc1ncc(Cl)c(Nc2ccccc2S(=O)(=O)C(C)C)n1` [Compound 45], the IC50 with H3122 cells (setting [1]) was determined as 106 nM. Also, the Dmax at EML4-ALK (setting [2]) and at EML4-ALK (setting [4]) was 51% each time. For the same molecule, the DC50 at EML4-ALK (setting [5]) and at EML4-ALK (setting [7]) was 390 nM throughout.
With `COc1cc(CCNCCOCCOCCC(=O)N[C@H](C(=O)N2C[C@H](O)CC2C(=O)N[C@@H](C)c2ccc(-c3scnc3C)cc2)C(C)(C)C)c(C)cc1Nc1ncc(Cl)c(Nc2ccccc2S(=O)(=O)C(C)C)n1` (stereo partly shown) [Compound 46], the IC50 in the experiment on H3122 cells (setting [1]) was 316 nM. Also, the Dmax at EML4-ALK (setting [2]) worked out at 58%; at EML4-ALK (setting [3]), 34.5%; on EML4-ALK (setting [4]) it was 51.3%. The half-maximal degradation concentration (DC50) on EML4-ALK (setting [5]) came to 1390 nM; on EML4-ALK (setting [6]), 206 nM; at EML4-ALK (setting [7]), 801 nM.
For `COc1cc(CCNCCOCCOCCOCCC(=O)N[C@H](C(=O)N2C[C@H](O)C[C@H]2C(=O)N[C@@H](C)c2ccc(-c3scnc3C)cc2)C(C)(C)C)c(C)cc1Nc1ncc(Cl)c(Nc2ccccc2S(=O)(=O)C(C)C)n1` [Compound 47], the half-maximal inhibitory concentration (IC50) with H3122 cells (setting [1]) was 285 nM. The Dmax on EML4-ALK (setting [2]) worked out at 81.9%; on EML4-ALK (setting [3]), 95.6%; on EML4-ALK (setting [4]), 88.7%. The DC50 was 1100 nM on EML4-ALK (setting [5]), 347 nM at EML4-ALK (setting [6]) and 723 nM on EML4-ALK (setting [7]).
As for `COc1cc(CCNCCCCCSC(C)(C)[C@H](NC(C)=O)C(=O)N2C[C@H](O)C[C@H]2C(=O)N[C@@H](C)c2ccc(-c3scnc3C)cc2)c(C)cc1Nc1ncc(Cl)c(Nc2ccccc2S(=O)(=O)C(C)C)n1` [Compound 48], the IC50 in the experiment with H3122 cells (setting [1]) turned out to be 388 nM. Besides, the values for the Dmax on EML4-ALK (setting [2]), on EML4-ALK (setting [3]) and at EML4-ALK (setting [4]) were 77.2%, 108% and 92.8%, respectively. In addition, the DC50 at EML4-ALK (setting [5]) was 961 nM; at EML4-ALK (setting [6]), 611 nM; at EML4-ALK (setting [7]), 786 nM.
On to `COc1cc(CCN(C)CCCCCNc2cccc3c2C(=O)N(C2CCC(=O)NC2=O)C3=O)c(C)cc1Nc1ncc(Cl)c(Nc2ccccc2S(=O)(=O)C(C)C)n1` (stereo not shown) [Compound 50], for which the IC50 with H3122 cells (Table 1, read-out: CTG IC50) stood at 20.6 nM. Also, the values for the DC50 at EML4-ALK (setting [5]), at EML4-ALK (setting [6]) and on EML4-ALK (setting [7]) were 57 nM, 24 nM and 41 nM, respectively.
In the case of `COc1cc(CCN(C)C(=O)CCCCCNC(=O)COc2cccc3c2C(=O)N(C2CCC(=O)NC2=O)C3=O)c(C)cc1Nc1ncc(Cl)c(Nc2ccccc2P(C)(C)=O)n1` (stereo not shown) [Compound 58], in the experiment with H3122 cells (setting [8]), the IC50 is above 10000 nM.
Turning to `COc1cc(CCN(C)C(=O)CCOCCOCCNC(=O)COc2cccc3c2C(=O)N(C2CCC(=O)NC2=O)C3=O)c(C)cc1Nc1ncc(Cl)c(Nc2ccccc2P(C)(C)=O)n1` (stereo not shown) [Compound 60], the IC50 in the experiment with H3122 cells (Table 2, read-out: CTG IC50) was above 10000 nM.
Consider `COc1cc(CCN(C)C(=O)CCCNc2cccc3c2C(=O)N(C2CCC(=O)NC2=O)C3=O)c(C)cc1Nc1ncc(Cl)c(Nc2ccccc2P(C)(C)=O)n1` (stereo not shown) [Compound 64], for which, in the experiment with H3122 cells (setting [8]), the half-inhibitory concentration (IC50) is 301 nM.
The same measure, in the same setting: the result for `COc1cc(CCN(C)C(=O)CCOCCOCCNc2cccc3c2C(=O)N(C2CCC(=O)NC2=O)C3=O)c(C)cc1Nc1ncc(Cl)c(Nc2ccccc2P(C)(C)=O)n1` (stereo not shown) [Compound 67] reads 2290 nM.
For the molecule `CC[C@@H](NC(=O)[C@@H]1C[C@H](NC(=O)CCCCCCC(=O)N(C)CCc2cc(OC)c(Nc3ncc(Cl)c(Nc4ccccc4P(C)(C)=O)n3)cc2C)CN1C(=O)[C@@H](NC(=O)[C@H](C)NC)C(C)(C)C)c1ccccc1` [Compound 74], the Dmax at EML4-ALK (setting [9]) came to 47.1%; on EML4-ALK (NCI-H3122, Table 2, second Dmax column, H3122 EML4-ALK-HiBit, 16 hours, read-out: Degradation Dmax), 47.2%; on EML4-ALK (NCI-H3122, Table 2, average Dmax, read-out: Degradation Avg. Dmax) it was 47.1%. Besides, the DC50 on EML4-ALK (setting [10]) came to 506 nM; at EML4-ALK (Table 2, second DC50 column, H3122 EML4-ALK-HiBit, 16 hours, read-out: Degradation DC50), 480 nM; on EML4-ALK (Table 2, average DC50, read-out: Degradation Avg. DC50), 490 nM.
Consider `COc1cc(CCNCCCCCC#Cc2cccc3c2C(=O)N(C2CCC(=O)NC2=O)C3=O)c(C)cc1Nc1ncc(Cl)c(Nc2ccccc2S(=O)(=O)C(C)C)n1` (stereo not shown) [compound 49, 4-(7-((4-((5-chloro-4-((2-(isopropylsulfonyl)phenyl)amino)pyrimidin-2-yl)amino)-5-methoxy-2-methylphenethyl)amino)hept-1-yn-1-yl)-2-(2,6-dioxopiperidin-3-yl)isoindoline-1,3-dione], for which the half-inhibitory concentration (IC50) in the experiment on H3122 cells (Homo sapiens, NCI-H3122, read-out: CTG IC50) turned out to be 96.3 nM; with H3122 cells (setting [1]), 66.9 nM.
On to `COc1cc(CCN(C)C(=O)CCCCCCCC(=O)N[C@H](C(=O)N2C[C@H](O)C[C@H]2C(=O)N[C@@H](C)c2ccc(-c3scnc3C)cc2)C(C)(C)C)c(C)cc1Nc1ncc(Cl)c(Nc2ccccc2P(C)(C)=O)n1` [compound 69, N^1-(4-((5-chloro-4-((2-(dimethylphosphoryl)phenyl)amino)pyrimidin-2-yl)amino)-5-methoxy-2-methylphenethyl)-N^9-((S)-1-((2S,4R)-4-hydroxy-2-(((S)-1-(4-(4-methylthiazol-5-yl)phenyl)ethyl)carbamoyl)pyrrolidin-1-yl)-3,3-dimethyl-1-oxobutan-2-yl)-N^1-methylnonanediamide], for which, in the experiment on H3122 cells (setting [8]), the half-maximal inhibitory concentration (IC50) turned out to be 477 nM.
Same read-out and setting: the same measure for `COc1cc(CCN(C)C(=O)CCCCCCC(=O)N[C@H](C(=O)N2C[C@H](O)CC2C(=O)N[C@@H](C)c2ccc(-c3scnc3C)cc2)C(C)(C)C)c(C)cc1Nc1ncc(Cl)c(Nc2ccccc2P(C)(C)=O)n1` (stereo partly drawn) [compound 70, N^1-(4-((5-chloro-4-((2-(dimethylphosphoryl)phenyl)amino)pyrimidin-2-yl)amino)-5-methoxy-2-methylphenethyl)-N^8-((S)-1-((2S,4R)-4-hydroxy-2-(((S)-1-(4-(4-methylthiazol-5-yl)phenyl)ethyl)carbamoyl)pyrrolidin-1-yl)-3,3-dimethyl-1-oxobutan-2-yl)-N′-methyloctanediamide]: 371 nM.
For `CC[C@@H](NC(=O)[C@@H]1C[C@H](NC(=O)CCCCCCCC(=O)N(C)CCc2cc(OC)c(Nc3ncc(Cl)c(Nc4ccccc4P(C)(C)=O)n3)cc2C)CN1C(=O)[C@@H](NC(=O)[C@H](C)NC)C(C)(C)C)c1ccccc1` [compound 75, N^1-(4-((5-chloro-4-((2-(dimethylphosphoryl)phenyl)amino)pyrimidin-2-yl)amino)-5-methoxy-2-methylphenethyl)-N^9-((3S,5S)-1-((S)-3,3-dimethyl-2-((S)-2-(methylamino)propanamido)butanoyl)-5-(((R)-1-phenylpropyl)carbamoyl)pyrrolidin-3-yl)-N^1-methylnonanediamide], the Dmax on EML4-ALK (setting [9]) was determined as 42.1%. Moreover, at EML4-ALK (setting [10]), the DC50 is 381 nM.
